Source: ChEMBL document CHEMBL1926527, “Pharmacophore insights into rpoB gene mutations in Mycobacterium tuberculosis rifampicin resistant isolates” (2012)
In brackets after ≈: the same amount, converted by molar mass.

Experiments:
Type in all cases: functional
[1] = tested on: Mycobacterium tuberculosis; assay: Antimycobacterial activity against Mycobacterium tuberculosis isolate MA03 expressing wild-type rpoB gene by resazurin microtiter assay
[2] = tested on: Mycobacterium tuberculosis; assay: Antimycobacterial activity against Mycobacterium tuberculosis isolate 353 expressing wild-type rpoB gene by resazurin microtiter assay
[3] = tested on: Mycobacterium tuberculosis; assay: Antimycobacterial activity against Mycobacterium tuberculosis isolate 361 expressing wild-type rpoB gene by resazurin microtiter assay
[4] = tested on: Mycobacterium tuberculosis; assay: Antimycobacterial activity against Mycobacterium tuberculosis H37Rv ATCC 27294 expressing wild-type rpoB gene by resazurin microtiter assay
[5] = tested on: Mycobacterium tuberculosis; assay: Antimycobacterial activity against Mycobacterium tuberculosis isolate 359 expressing wild-type rpoB gene by resazurin microtiter assay

Structure (SMILES)	MIC [1]	MIC [2]	MIC [3]	MIC [4]	MIC [5]
CO[C@H]1/C=C/O[C@@]2(C)Oc3c(C)c(O)c4c(O)c(c(/C=N/N5CCN(C)CC5)c(O)c4c3C2=O)NC(=O)/C(C)=C\C=C\[C@H](C)[C@H](O)[C@@H](C)[C@@H](O)[C@@H](C)[C@H](OC(C)=O)[C@@H]1C [RIFAMPIN]	< 0.06 mg/L	> 2 mg/L	< 0.06 mg/L	0.06 mg/L (≈ 0.0729 µM)	0.12 mg/L (≈ 0.146 µM)
C=CCCCCCCCCC(=O)N1C2=C3NC(=O)/C(C)=C\C=C\[C@H](C)[C@H](O)[C@@H](C)[C@@H](O)[C@@H](C)[C@H](OC(C)=O)[C@H](C)[C@@H](OC)/C=C/O[C@@]4(C)Oc5c(C)c(O)c(c(c5C4=O)C2=NC12CCN(CC(C)C)CC2)C3=O	< 0.06 mg/L	> 2 mg/L	< 0.06 mg/L	0.06 mg/L (≈ 0.0592 µM)	< 0.06 mg/L
CO[C@H]1/C=C/O[C@@]2(C)Oc3c(C)c(O)c4c(c3C2=O)C2=NC3(CCN(CC(C)C)CC3)NC2=C(NC(=O)/C(C)=C\C=C\[C@H](C)[C@H](O)[C@@H](C)[C@@H](O)[C@@H](C)[C@H](OC(C)=O)[C@@H]1C)C4=O [RIFABUTIN]	< 0.06 mg/L	0.12 mg/L (≈ 0.142 µM)	< 0.06 mg/L	0.06 mg/L (≈ 0.0708 µM)	< 0.06 mg/L
CCCCCCCCCCCCCCCC(=O)N1C2=C3NC(=O)/C(C)=C\C=C\[C@H](C)[C@H](O)[C@@H](C)[C@@H](O)[C@@H](C)[C@H](OC(C)=O)[C@H](C)[C@@H](OC)/C=C/O[C@@]4(C)Oc5c(C)c(O)c(c(c5C4=O)C2=NC12CCN(CC(C)C)CC2)C3=O	< 0.06 mg/L	> 2 mg/L	< 0.06 mg/L	0.06 mg/L (≈ 0.0553 µM)	< 0.06 mg/L
CO[C@H]1/C=C/O[C@@]2(C)Oc3c(C)c(O)c4c(c3C2=O)C2=NC3(CCN(CC(C)C)CC3)N(C(C)=O)C2=C(NC(=O)/C(C)=C\C=C\[C@H](C)[C@H](O)[C@@H](C)[C@@H](O)[C@@H](C)[C@H](OC(C)=O)[C@@H]1C)C4=O	< 0.06 mg/L	0.12 mg/L (≈ 0.135 µM)	< 0.06 mg/L	0.06 mg/L (≈ 0.0675 µM)	< 0.06 mg/L
CO[C@H]1/C=C/O[C@@]2(C)Oc3c(C)c(O)c4c(c3[C@H]2O)C2=NC3(CCN(CC(C)C)CC3)NC2=C(NC(=O)/C(C)=C\C=C\[C@H](C)[C@H](O)[C@@H](C)[C@@H](O)[C@@H](C)[C@H](O)[C@@H]1C)C4=O	< 0.06 mg/L	2 mg/L (≈ 2.48 µM)	0.12 mg/L (≈ 0.149 µM)	0.06 mg/L (≈ 0.0743 µM)	0.25 mg/L (≈ 0.31 µM)
CO[C@H]1/C=C/O[C@@]2(C)Oc3c(C)c(O)c4c(c3[C@H]2O)C2=NC3(CCN(CC(C)C)CC3)N(C(C)=O)C2=C(NC(=O)/C(C)=C\C=C\[C@H](C)[C@H](O)[C@@H](C)[C@@H](O)[C@@H](C)[C@H](OC(C)=O)[C@@H]1C)C4=O	< 0.06 mg/L	> 2 mg/L	< 0.06 mg/L	0.06 mg/L (≈ 0.0673 µM)	< 0.06 mg/L
CO[C@H]1/C=C/O[C@@]2(C)Oc3c(C)c(O)c4c(c3C2=O)C2=NC3(CCN(CC(C)C)CC3)NC2=C(NC(=O)/C(C)=C\C=C\[C@H](C)[C@H](O)[C@@H](C)[C@@H](O)[C@@H](C)[C@H](O)[C@@H]1C)C4=O	< 0.06 mg/L	> 2 mg/L	< 0.06 mg/L	0.06 mg/L (≈ 0.0745 µM)	< 0.06 mg/L
